Measurements: patent US10174033B2, “N6-substituted adenosine derivatives and N6-substituted adenine derivatives and uses thereof” (INSTITUTE OF MATERIA MEDICA, CHINESE ACADEMY OF MEDICAL …, priority 2009, dated 2019)

Tests used:
mice = experiment: Sub-threshold hypnotic dose sodium pentobarbital induced sleeping test; assay type: in vivo; conditions: intraperitoneal, 30 min before sub-threshold sodium pentobarbital (22 mg/kg ip)
Description: N^6-substituted adenosine derivatives and/or N^6-substituted adenine derivatives potentiated sodium pentobarbital-induced sleep in mice
Name of Experiment: Sub-threshold hypnotic dose sodium pentobarbital induced sleeping test
Method of Experiment: Mice (n=7-10) were pretreated with test compound or vehicle, after 30 min, a maximal sub-threshold hypnotic dose of sodium pentobarbital (22 mg/kg) was given intraperitoneally (ip). (On some condition, the sub-threshold dosage of sodium pentobarbital should be optimized to the maximum dose, at which the rate of sleep onset of vehicle group is less than 10%). […] Following sodium pentobarbital injection, each mouse was observed 15 min for onset of sleep. The percentage of sleep onset was calculated as: (number of animals falling asleep/total number of animals)×100%.

male ICR-mice = experiment: Potentiation of sodium pentobarbital sleeping time test; assay type: in vivo; conditions: 5 mg/kg
Description: Effects of N^6-substituted adenosine derivatives and/or N^6-substituted adenine derivatives on sodium pentobarbital-induced sleeping time in mice.
Name of Experiment: Potentiation of sodium pentobarbital sleeping time test.
Method of Experiment: Groups of 8-10 male ICR-mice with an average weight of 18-22 g were used. They were dosed orally or i.p. with the test compound or the vehicle. Thirty min after i.p. injection or 60 min after oral dosing 38 mg/kg sodium pentobarbital were injected intravenously. The latency and duration of sleep (loss of righting reflex) were recorded. The percentage of prolongation of sleeping time was calculated as: [(sleeping time of experimental group)−(sleeping time of control group)]/(sleeping time of control group)×100%.

[1] = oral, 38 mg/kg sodium pentobarbital 60 min later

Compound	Sleep prolonging rate (%) (male ICR-mice; [1])	Sleep rate (%) (mice; 1 mg/kg)	other results
CC(Nc1ncnc2c1ncn2[C@@H]1O[C@H](CO)[C@@H](O)[C@H]1O)c1ccccc1 (mixture of isomers) [Example 45, N^6-[(±)-1-(phenyl)-ethyl]-adenosine]	201%	–	Sleep rate (%) (mice; 5 mg/kg): 100%; Sleep prolonging rate (%) (male ICR-mice; intraperitoneal, 38 mg/kg sodium pentobarbital 30 min later): 254%
OC[C@H]1O[C@@H](n2cnc3c(NCc4ccccc4O)ncnc32)[C@H](O)[C@@H]1O [Example 3, N^6-(o-hydroxybenzyl)-adenosine]	92%	88%	–
O=[N+]([O-])c1ccccc1CNc1ncnc2c1ncn2[C@@H]1O[C@H](CO)[C@@H](O)[C@H]1O [Example 9, N^6-(o-nitrobenzyl)-adenosine]	–	100%	–
OC[C@H]1O[C@@H](n2cnc3c(NCc4ccco4)ncnc32)[C@H](O)[C@@H]1O [Example 17, N^6-(2-furanylmethyl)-adenosine]	–	–	Sleep rate (%) (mice; 5 mg/kg): 71%
COc1ccc(CNc2ncnc3c2ncn3[C@@H]2O[C@H](CO)[C@@H](O)[C@H]2O)cc1O [Example 29, N^6-(4-methoxy-3-hydroxybenzyl)-adenosine]	–	86%	–
COc1ccc(CNc2ncnc3c2ncn3[C@@H]2O[C@H](CO)[C@@H](O)[C@H]2O)cc1OC [Example 30, N^6-(3,4-dimethoxybenzyl)-adenosine]	–	100%	–
Cc1ccc(CNc2ncnc3c2ncn3[C@H]2C[C@H](O)[C@@H](CO)O2)cc1 [Example 151, N^6-(p-methylbenzyl)-2′-deoxy-adenosine]	34%	–	–
CC(=O)OC[C@H]1O[C@@H](n2cnc3c(NCc4ccc5c(c4)OCO5)ncnc32)C[C@H]1OC(C)=O [Example 154, N^6-(3,4-methylenedioxy-benzyl)-3′,5′-diacetyl-2′-deoxyadenosine]	29%	–	–
CCCCCCCC(=O)OCC1OC(n2cnc3c(NCc4ccc5c(c4)OCO5)ncnc32)C2OC(C)(C)OC12 (stereo not drawn) [N^6-(3,4-methylenedioxybenzyl)-2′,3′-O-isopropylidene-adenosine-5′-caprylate]	4%	–	–
CCCC(=O)OCC1OC(n2cnc3c(NCc4ccc(OC(=O)CCC)c(OC)c4)ncnc32)C2OC(C)(C)OC12 (stereo not drawn) [N^6-(3-methoxy-4-butanoyloxy-benzyl)-2′,3′-O-isopropylidene-adenosine-5′-butyrate]	21%	–	–
CCCC(=O)OC[C@H]1O[C@@H](n2cnc3c(NCc4ccc(OC(=O)CCC)c(OC)c4)ncnc32)[C@@H](O)C1O (stereo partly drawn) [N^6-(3-methoxy-4-butanoyloxy-benzyl)-adenosine-5′-butyrate]	11%	–	–
CCCC(=O)Oc1ccc(CNc2ncnc3c2ncn3[C@@H]2O[C@H](CO)[C@@H](O)[C@H]2O)cc1OC [N^6-(3-methoxy-4-butanoyloxy-benzyl)-adenosine]	11%	–	–
COc1cc(CNc2ncnc3nc[nH]c23)ccc1O [N^6-(3-methoxy-4-hydroxybenzyl)-adenine]	–	38%	–
COc1ccccc1CNc1ncnc2c1ncn2[C@@H]1O[C@H](CO)[C@@H](O)[C@H]1O [N^6-(o-methoxybenzyl)-adenosine]	–	100%	–
Cc1ccc(-c2nc3ccc(C)cn3c2CC(=O)N(C)C)cc1 [zolpidem, reference compound]	–	–	Sleep rate (%) (mice; 2 mg/kg): 75%
N^6-[(R)-1-(phenyl)-propyl]-2′,3′-O-isopropylidene-adenosine-5′-acetate	18%	–	–
N^6-[(S)-1-(phenyl)-propyl]-adenosine-5′-decanoic ether [Example 84]	4%	–	–
N^6-[(±)-1-(3,4,5-trimethoxyphenyl)-ethyl]-adenosine-5′-decanoic ether [Example 56]	2%	–	–
